Measurements published in patent US10442791B2, “DNA-PK inhibitors” (Vertex Pharmaceuticals Incorporated, priority 2012, dated 2019).

How the values were obtained:
[1] = test system: SNU449; test: Cell viability following irradiation (CellTiter-Glo), SNU449; assay type: cell-based; settings: SNU449 (Hepatocellular Carcinoma), viability at 6 days
Protocol: (§1) To evaluate the radiosensitizing effects of compounds of the invention in combination with ionizing radiation (IR), a broad panel of cell lines across multiple tumor types and genetic backgrounds were tested. Cells were incubated with DMSO or compound 578 for 30 minutes and then exposed to various doses of radiation (0, 0.5, 1, 2, 4, 6, 8, and 16 Gy). Cell viability was assessed at 6 days using CellTiter-Glo® (Promega, Inc).

[2] = test system: DU4475; test: Cell viability following irradiation (CellTiter-Glo), DU4475; assay type: cell-based; settings: DU4475 (Breast Cancer), viability at 6 days
Protocol: as §1

[3] = test system: SW900; test: Cell viability following irradiation (CellTiter-Glo), SW900; assay type: cell-based; settings: SW900 (Lung Cancer), viability at 6 days
Protocol: as §1

[4] = test system: FaDu; test: Cell viability following irradiation (CellTiter-Glo), FaDu; assay type: cell-based; settings: FaDu (Head and Neck Squamous Cell Carcinoma), viability at 6 days
Protocol: as §1

[5] = test system: human fibroblast cell lines (HFL1, IMR90 and MRC5), ARPE19, NHBE, SAEC; test: Cell viability following irradiation, normal cell lines; assay type: cell-based; settings: exception: HS68
Protocol: as §1

[6] = test system: LS411N; test: Cell viability following irradiation (CellTiter-Glo), LS411N; assay type: cell-based; settings: LS411N (Colorectal Cancer), viability at 6 days
Protocol: as §1

[7] = test system: PC3; test: Cell viability following irradiation (CellTiter-Glo), PC3; assay type: cell-based; settings: PC3 (Prostate Cancer), viability at 6 days
Protocol: as §1

[8] = test system: U87MG; test: Cell viability following irradiation (CellTiter-Glo), U87MG; assay type: cell-based; settings: U87MG (Glioblastoma), viability at 6 days
Protocol: as §1

[9] = test system: HT1080; test: Cell viability following irradiation (CellTiter-Glo), HT1080; assay type: cell-based; settings: HT1080 (Fibrosarcoma), viability at 6 days
Protocol: as §1

[10] = test system: DBTRG-05MG; test: Cell viability following irradiation (CellTiter-Glo), DBTRG-05MG; assay type: cell-based; settings: DBTRG-05MG (Glioblastoma), viability at 6 days
Protocol: as §1

[11] = test system: Miapaca2; test: Cell viability following irradiation (CellTiter-Glo), Miapaca2; assay type: cell-based; settings: Miapaca2 (Pancreatic cancer), viability at 6 days
Protocol: as §1

[12] = test system: DNA-PK null SCID mouse cell line; test: Cell viability following irradiation (CellTiter-Glo), SCID; assay type: cell-based; settings: for EC50 IR: SCID (SCID Tumor, DNA-PK null), viability at 6 days
Protocol: as §1

[13] = test system: H1299; test: Cell viability following irradiation (CellTiter-Glo), H1299; assay type: cell-based; settings: H1299 (Lung Cancer), viability at 6 days
Protocol: as §1

[14] = test system: SMCC7721; test: Cell viability following irradiation (CellTiter-Glo), SMCC7721; assay type: cell-based; settings: SMCC7721 (Hepatocellular Carcinoma), viability at 6 days
Protocol: as §1

[15] = test system: Colo-205; test: Cell viability following irradiation (CellTiter-Glo), Colo-205; assay type: cell-based; settings: Colo-205 (Colorectal Cancer), viability at 6 days
Protocol: as §1

[16] = test system: OE19; test: Cell viability following irradiation (CellTiter-Glo), OE19; assay type: cell-based; settings: OE19 (Gastric-Esophageal Cancer), viability at 6 days
Protocol: as §1

[17] = test system: A172; test: Cell viability following irradiation (CellTiter-Glo), A172; assay type: cell-based; settings: A172 (Glioblastoma), viability at 6 days
Protocol: as §1

[18] = test system: HCT116; test: Cell viability following irradiation (CellTiter-Glo), HCT116; assay type: cell-based; settings: HCT116 (Colorectal Cancer), viability at 6 days
Protocol: as §1

[19] = test system: DLD-1; test: Cell viability following irradiation (CellTiter-Glo), DLD-1; assay type: cell-based; settings: DLD-1 (Colorectal Cancer), viability at 6 days
Protocol: as §1

[20] = test system: H460; test: Cell viability following irradiation (CellTiter-Glo), H460; assay type: cell-based; settings: H460 (Lung Cancer), viability at 6 days
Protocol: as §1

[21] = test system: MCF7; test: Cell viability following irradiation (CellTiter-Glo), MCF7; assay type: cell-based; settings: MCF7 (Breast Cancer), viability at 6 days
Protocol: as §1

[22] = test system: OD26749 NSCLC subcutaneous xenograft; test: In vivo efficacy, primary OD26749 NSCLC subcutaneous xenograft model with whole body IR; set-up: species or system Nude mice; settings: Days 19 and 26, Day 30 post implantation
Protocol: The efficacy of compound 578 in vivo was evaluated in the primary OD26749 NSCLC subcutaneous xenograft model. This primary NSCLC tumor was obtained from a patient with a poorly differentiated adenocarcinoma and was serially passaged in SCID mice prior to this study. Nude mice were surgically implanted with 150-mg fragments of OD26749 tumor at passage 3 (P3). Whole body ionizing radiation (IR, 2 Gy/treatment) was administered using a dual Cesium 137 source and initiated when tumors reached approximately 350 mm^3. Tumor volumes were measured twice a week during the course of the study. Anti-tumor efficacy is expressed as % T/C (tumor/control) while regression is expressed as % T/Ti, the reduction in tumor volume compared to the starting tumor volume.
Compound 578 [in 16% Captisol®+HPMC/PVP] was administered orally (b.i.d. at 0 and 4 hours) at 25, 50, 100 mg/kg and (q.d.) 200 mg/kg on Day 19 post implantation. A single 2-Gy dose of whole body IR was given 15 minutes after compound administration. Control animals were given vehicle orally b.i.d. (0 and 4 hours). On Day 26 post implantation, the same regimens were repeated.

EC50 IR ([1]; compound 578 0.7 μM + IR): 3.3 Gy
EC50 IR ([1]; compound 578 2.1 μM + IR): 1.8 Gy
EC50 IR ([3]; compound 578 0.7 μM + IR): 4.2 Gy
EC50 IR ([3]; compound 578 2.1 μM + IR): 4.3 Gy
EC50 IR ([7]; compound 578 0.7 μM + IR): 0.5 Gy
EC50 IR ([7]; compound 578 2.1 μM + IR): <0.5 Gy
EC50 IR ([8]; compound 578 0.7 μM + IR): >16 Gy
EC50 IR ([8]; compound 578 2.1 μM + IR): >16 Gy
EC50 IR ([9]; compound 578 0.7 μM + IR): 1.9 Gy
EC50 IR ([9]; compound 578 2.1 μM + IR): 0.9 Gy
EC50 IR ([11]; compound 578 0.7 μM + IR): 2.4 Gy
EC50 IR ([11]; compound 578 2.1 μM + IR): 1.9 Gy
EC50 IR ([13]; compound 578 0.7 μM + IR): 1.1 Gy
EC50 IR ([13]; compound 578 2.1 μM + IR): 1.5 Gy
EC50 IR ([15]; compound 578 0.7 μM + IR): 0.7 Gy
EC50 IR ([15]; compound 578 2.1 μM + IR): 0.7 Gy
EC50 IR ([18]; compound 578 0.7 μM + IR): 0.5 Gy
EC50 IR ([18]; compound 578 2.1 μM + IR): <0.5 Gy
EC50 IR ([19]; compound 578 0.7 μM + IR): 0.6 Gy
EC50 IR ([19]; compound 578 2.1 μM + IR): 0.7 Gy
EC50 IR ([20]; compound 578 0.7 μM + IR): 0.9 Gy
EC50 IR ([20]; compound 578 2.1 μM + IR): 0.7 Gy
EC50 IR ([21]; compound 578 0.7 μM + IR): 4.9 Gy
EC50 IR ([21]; compound 578 2.1 μM + IR): 3.3 Gy
Structure (SMILES): CNC(=O)c1ccnc2c([C@H](C)CNc3cc(-c4cnc(C)nc4)ncn3)cccc12 [Compound 578, (S)—N-methyl-8-(1-((2′-methyl-[4,5′-bipyrimidin]-6-yl)amino)propan-2-yl)quinoline-4-carboxamide]
EC50 IR ([2]; compound 578 0.7 μM + IR): <0.5 Gy
EC50 IR ([2]; compound 578 2.1 μM + IR): <0.5 Gy
EC50 IR ([4]; compound 578 0.7 μM + IR): 2 Gy
EC50 IR ([4]; compound 578 2.1 μM + IR): 1.9 Gy
radiosensitization [5]: only marginal radiosensitization
EC50 IR ([6]; compound 578 0.7 μM + IR): 2.3 Gy
EC50 IR ([6]; compound 578 2.1 μM + IR): 1.9 Gy
EC50 IR ([10]; compound 578 0.7 μM + IR): 4.2 Gy
EC50 IR ([10]; compound 578 2.1 μM + IR): 5 Gy
EC50 IR ([12]; compound 578 0.7 μM + IR): 2.8 Gy
EC50 IR ([12]; compound 578 2.1 μM + IR): 3.1 Gy
effect on cell viability ([12]; as a single agent or in combination with radiation, DNA-PK null SCID mouse cell line): minimal effect on cell viability
EC50 IR ([14]; compound 578 0.7 μM + IR): 1.7 Gy
EC50 IR ([14]; compound 578 2.1 μM + IR): 0.6 Gy
EC50 IR ([16]; compound 578 0.7 μM + IR): 0.5 Gy
EC50 IR ([16]; compound 578 2.1 μM + IR): <0.5 Gy
EC50 IR ([17]; compound 578 0.7 μM + IR): 1.7 Gy
EC50 IR ([17]; compound 578 2.1 μM + IR): 0.9 Gy
% T/C (tumor growth inhibition) ([22]; 25 mg/kg b.i.d. oral + 2 Gy whole body IR): 25.6%
% T/C (tumor growth inhibition) ([22]; 50 mg/kg b.i.d. oral + 2 Gy whole body IR): 11.7%
% T/Ti (regression) ([22]; 100 mg/kg b.i.d. oral + 2 Gy whole body IR, P<0.001 compared to IR alone): −3.1%
% T/C (tumor growth inhibition) ([22]; 200 mg/kg q.d. oral + 2 Gy whole body IR): 6.5%
